pEC50, pIC50: −log10 of the molar value.
Experiments:
LXRβ [1] = biological target: T1, LXRβ (Homo sapiens (Human), UniProt P55055); experiment: LXRβ PPI (category A-D, Tables 1 and 3); assay type: biochemical; conditions: Table 3, trans-AB examples
SREBP-2 [2] = biological target: T2, SREBP-2 (Homo sapiens (Human), UniProt Q12772); experiment: SREBP-2 IC50 (category A-D, Tables 1 and 3); assay type: cell-based; conditions: Table 3, trans-AB examples
SREBP-2 [3] = biological target: T2, SREBP-2; experiment: In vitro assay SREBP-2: PathHunter U2OS SREBP-2 Nuclear Translocation Cell Line, U18666A-stimulated; assay type: cell-based; conditions: PathHunter U2OS SREBP-2 nuclear translocation cells, U18666A 10 μM, overnight (16 hours)
LXRβ [4] = biological target: T1, LXRβ; experiment: In vitro assay LXRβ: PathHunter NHR CHO cells, LXRβ / Steroid Receptor Co-activator Peptide enzyme fragment complementation; assay type: cell-based; conditions: PathHunter NHR CHO cells, full-length human LXRβ and SRCP, chemiluminescent signal; read-out: LXRβ PPI
How it was run: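 Co-activator recruitment measured by chemiluminescence after signal generation. The CHO line carries full-length human LXRβ tagged with ProLink and an SRCP–enzyme acceptor fusion in the nucleus; cells sat overnight at 37° C before testing, in charcoal-dextran filtered serum medium with 1% final vehicle.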

T1 sequence (P55055 whole entry): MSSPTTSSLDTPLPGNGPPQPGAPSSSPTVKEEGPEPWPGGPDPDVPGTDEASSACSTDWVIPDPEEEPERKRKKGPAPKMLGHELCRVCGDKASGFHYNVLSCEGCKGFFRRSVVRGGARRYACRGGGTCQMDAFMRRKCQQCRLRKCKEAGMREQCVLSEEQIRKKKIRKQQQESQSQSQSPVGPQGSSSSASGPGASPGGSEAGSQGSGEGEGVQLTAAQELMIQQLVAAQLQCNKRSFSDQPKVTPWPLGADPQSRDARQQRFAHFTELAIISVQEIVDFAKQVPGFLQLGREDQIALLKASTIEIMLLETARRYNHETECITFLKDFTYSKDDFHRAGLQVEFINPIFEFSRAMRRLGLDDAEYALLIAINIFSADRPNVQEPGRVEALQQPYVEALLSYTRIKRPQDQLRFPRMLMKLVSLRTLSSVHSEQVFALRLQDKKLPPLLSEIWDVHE

Row | LXRβ PPI (LXRβ [1]) | pIC50 (SREBP-2 [2]) | Molecule | pIC50 (SREBP-2 [3]) | pEC50 (LXRβ [4])
1 | B (250 nM-1000 nM) | > 6.60 | CC[C@](O)(CC[C@@H](C)[C@H]1CC[C@H]2[C@@H]3CC=C4C[C@@H](O)CC[C@]4(C)[C@H]3CC[C@]12C)C(F)(F)F [Example 22, (3S,8S,9S,10R,13R,14S,17R)-17-((2R,5S)-5-hydroxy-5-(trifluoromethyl)heptan-2-yl)-10,13-dimethyl-2,3,4,7,8,9,10,11,12,13,14,15,16,17-tetradecahydro-1H-cyclopenta(a)phenanthren-3-ol] | 6.00 to 6.60 | –
2 | C (1000-10000 nM) | > 6.60 | CC[C@@](O)(CC[C@@H](C)[C@H]1CC[C@H]2[C@@H]3CC=C4C[C@@H](O)CC[C@]4(C)[C@H]3CC[C@]12C)C(F)(F)F [Example 21, (3S,8S,9S,10R,13R,14S,17R)-17-((2R,5R)-5-hydroxy-5-(trifluoromethyl)heptan-2-yl)-10,13-dimethyl-2,3,4,7,8,9,10,11,12,13,14,15,16,17-tetradecahydro-1H-cyclopenta(a)phenanthren-3-ol] | > 6.60 | –
3 | – | 6.00 to 6.60 | C[C@H](CC[C@@](O)(C1CC1)C(F)(F)F)[C@H]1CC[C@H]2[C@@H]3CC=C4C[C@@H](O)CC[C@]4(C)[C@H]3CC[C@]12C [Example 24, (3S,8S,9S,10R,13R,14S,17R)-17-((2R,5R)-5-cyclopropyl-6,6,6-trifluoro-5-hydroxyhexan-2-yl)-10,13-dimethyl-2,3,4,7,8,9,10,11,12,13,14,15,16,17-tetradecahydro-1H-cyclopenta(a)phenanthren-3-ol] | 6.00 to 6.60 | –
4 | A (<1 nM to 250 nM) | > 6.60 | C[C@H](CC[C@](O)(C1CC1)C(F)(F)F)[C@H]1CC[C@H]2[C@@H]3CC=C4C[C@@H](O)CC[C@]4(C)[C@H]3CC[C@]12C [Example 23, (3S,8S,9S,10R,13R,14S,17R)-17-((2R,5s)-5-cyclopropyl-6,6,6-trifluoro-5-hydroxyhexan-2-yl)-10,13-dimethyl-2,3,4,7,8,9,10,11,12,13,14,15,16,17-tetradecahydro-1H-cyclopenta(a)phenanthren-3-ol] | > 6.60 | –
5 | D (>10000 nM) | > 6.60 | C[C@H](CCC(=O)N1CC[C@@H](CO)O1)[C@H]1CC[C@H]2[C@@H]3CC=C4C[C@@H](O)CC[C@]4(C)[C@H]3CC[C@]12C [Example 42, (R)-4-((3S,8S,9S,10R,13R,14S,17R)-3-hydroxy-10,13-dimethyl-2,3,4,7,8,9,10,11,12,13,14,15,16,17-tetradecahydro-1H-cyclopenta[a]-phenanthren-17-yl)-1-((S)-5-(hydroxymethyl)isoxazolidin-2-yl) pentan-1-one] | 6.00 to 6.60 | –
6 | D (>10000 nM) | > 6.60 | (R)-4-((3S,8S,9S,10R,13R,14S,17R)-3-hydroxy-10,13-dimethyl-2,3,4,7,8,9,10,11,12,13,14,15,16,17-tetradecahydro-1H-cyclopenta[a]phenanthren-17-yl)-N-methyl-N-propoxypentanamide [Example 12] | – | –

The next lines start with the molecule.

Row | Molecule | LXRβ PPI (LXRβ [1]) | pIC50 (SREBP-2 [2]) | pIC50 (SREBP-2 [3]) | pEC50 (LXRβ [4])
7 | C=C[C@](O)(CC[C@@H](C)[C@H]1CC[C@H]2[C@@H]3CC=C4C[C@@H](O)CC[C@]4(C)[C@H]3CC[C@]12C)C(F)(F)F [Example 20, (3S,8S,9S,10R,13R,14S,17R)-17-((2R,5R)-5-hydroxy-5-(trifluoromethyl)hept-6-en-2-yl)-10,13-dimethyl-2,3,4,7,8,9,10,11,12,13,14,15,16,17-tetradecahydro-1H-cyclopenta[a]phenanthren-3-ol] | D (>10000 nM) | > 6.60 | > 6.60 | < 5.00
8 | C[C@H](CC[C@@](O)(C1CCC1)C(F)(F)F)[C@H]1CC[C@H]2[C@@H]3CC=C4C[C@@H](O)CC[C@]4(C)[C@H]3CC[C@]12C [Example 26, (3S,8S,9S,10R,13R,14S,17R)-17-((2R,5R)-5-cyclobutyl-6,6,6-trifluoro-5-hydroxyhexan-2-yl)-10,13-dimethyl-2,3,4,7,8,9,10,11,12,13,14,15,16,17-tetradecahydro-1H-cyclopenta[a]phenanthren-3-ol] | B (250 nM-1000 nM) | 6.00 to 6.60 | 6.00 to 6.60 | –
9 | C[C@H](CCC(=O)N(C)C)[C@H]1CC[C@H]2[C@@H]3CC[C@H]4C[C@@H](O)CC[C@]4(C)[C@H]3[C@@H](O)C[C@]12C [Example T5, (R)-4-((3S,5S,8S,9S,10S,11S,13R,14S,17R)-3,11-dihydroxy-10,13-dimethylhexadecahydro-1H-cyclopenta[a]phenanthren-17-yl)-N, N-dimethylpentanamide] | – | 6.00 to 6.60 | – | –
10 | CCCCON(C)C(=O)CC[C@@H](C)[C@H]1CC[C@H]2[C@@H]3CC=C4C[C@@H](O)CC[C@]4(C)[C@H]3CC[C@]12C [Example 16] | B (250 nM-1000 nM) | > 6.60 | – | 5.00 to 6.00
11 | C=C[C@@](O)(CC[C@@H](C)[C@H]1CC[C@H]2[C@@H]3CC=C4C[C@@H](O)CC[C@]4(C)[C@H]3CC[C@]12C)C(F)(F)F [Example 19, (3S,8S,9S,10R,13R,14S,17R)-17-((2R,5S)-5-hydroxy-5-(trifluoromethyl)hept-6-en-2-yl)-10,13-dimethy12,3,4,7,8,9,10,11,12,13,14,15,16,17-tetradecahydro-1H-cyclopenta[a]phenanthren-3-ol] | D (>10000 nM) | > 6.60 | > 6.60 | 5.00 to 6.00
12 | CCON(C)C(=O)CC[C@@H](C)[C@H]1CC[C@H]2[C@@H]3CC=C4C[C@@H](O)CC[C@]4(C)[C@H]3CC[C@]12C [Example 10, (R)—N-ethoxy-4-((3S,8S,9S,10R,13R,14S,17R)-3-hydroxy-10,13-dimethyl-2,3,4,7,8,9,10,11,12,13,14,15,16,17-tetradecahydro-1H-cyclopenta[a]phenanthren-17-yl)-N-methylpentanamide] | B (250 nM-1000 nM) | > 6.60 | > 6.60 | –
13 | CCC1(O)CCN(C(=O)CC[C@@H](C)[C@H]2CC[C@H]3[C@@H]4CC[C@H]5C[C@@H](O)CC[C@]5(C)[C@H]4[C@@H](O)C[C@]23C)CC1 [Example T7, (R)-4-((3S,5S,8S,9S,10S,11S,13R,14S,17R)-3,11-dihydroxy-10,13-dimethylhexadecahydro-1H-cyclopenta[a]phenanthren-17-yl)-1-(4-ethyl-4-hydroxypiperidin-1-yl)pentan-1-one] | – | 6.00 to 6.60 | – | –
14 | C[C@H](CCC(=O)N1CCC(N(C)S(C)(=O)=O)CC1)[C@H]1CC[C@H]2[C@@H]3CC=C4C[C@@H](O)CC[C@]4(C)[C@H]3CC[C@]12C [Example 289, N-{1-[(4R)-4-[(1R,3aS,3bS,7S,9aR,9bS,11aR)-7-hydroxy-9a,11a-dimethyl-1H,2H,3H,3aH,3bH,4H,6H,7H,8H,9H,9aH,9bH,10H,11H,11aH-cyclopenta[a]phenanthren-1-yl]pentanoyl]piperidin-4-yl}-N-methylmethanesulfonamide] | – | – | 6.00 to 6.60 | < 5.00
